In general, tissue uptake refers to the share of the injected amount in each gram of the tissue. The IC50 is the midpoint of a concentration-inhibition curve.

“Also recorded” adds a separate entry of the source. Ends that are not written are not given here. * marks the point of attachment. DTPA = O=C(O)CN(CCN(CC(=O)O)CC(=O)O)CCN(CC(=O)O)CC(=O)*

Series [1] relates to breast tumors. The experiment in a line: tumor uptake in tumor-bearing mice. As to conditions: 24 hr post-injection.
Method: (§1) Approximately 5×10^6 viable cells from either tumor cell line are implanted in the right thigh of each mouse, and tumors are allowed to form. […] Animals are sacrificed at 15 min, 1 hr, 2 hr, 4 hr and 24 hr post-injection, and % of ID/g tissue is determined in all tissues. A control group of tumor-bearing mice is injected with PACAP27 mono-iodinated with ^125I. […] All animals are imaged using a GE STARCAM gamma camera equipped with a dedicated computer and a low energy parallel hole collimator.
(§2) The co-injected ^99mTc-TP 3475 and ^111In-DTPA-D-Phe^1-Octreotide in the mouse tissues were counted by using the characteristic energy windows for their respective radionuclides (±15 or 20%); e.g., 140 KeV for ^99mTc, and 173 KeV and 247 KeV for ^111In. The ^111In counts in the tissues were again determined when ^99mTc was completely decayed (e.g., 10-12 half-lives).
Details of series [2]: species or system Sprague-Dawley rats. The settings on record: rat, in vivo, iv. How it is done:
The blood clearance of ^99mTc-TP 3475 was studied in Sprague-Dawley rats as follows. Three Sprague Dawley rats, each weighing approximately 250 grams, were injected through one lateral tail vein with one mCi of ^99mTc-TP 3475, and serial blood samples were drawn in triplicate through the other lateral tail vein at 1, 5, 10, 15, and 30 minutes post-injection, and at 1, 2, 4, 6, 18 and 24 hours post injection. The blood samples were weighed, and radioactivity was counted against a standard ^99mTc solution prepared at the time of injection using standard scintillation counting techniques. The % ID/g plotted as a function of time.

The format of series [3] is physicochemical. The protocol: For the metallization reaction, the vial contents were allowed to come to ambient temperature, and 10-40 mCi ^99mTc in 200 μl 0.9% NaCl was injected into the vial. The mixture was incubated at 100° C. for 30 min, and the pH of the reaction mixture was raised to 6-6.5 by addition of 1 ml 0.1 M Na2HPO4. One-hundred twenty-five mg of Na-ascorbate was added as a stabilizing agent. […] The yields at 22° C. are quantitative as determined by HPLC, producing a single peak at Rt. 12.5 min.

The subject of series [4] is T47D xenografts. Nature of the series: receptor blocking study with PACAP in tumor-bearing mice. Type of series: in vivo. As to conditions: PACAP pre-injected; nude mice with T47D xenografts. How it is done: In order to determine receptor specificity of […] in human breast tumors, receptor blocking studies with PACAP were performed. In nude mice with T47D xenografts, ^99mTc-TP 3475 tumor uptake was reduced by approximately 50% when PACAP was pre-injected.

Series [5] can be described thus: in vivo. As to conditions: nude, mouse, iv, total radioactivity.
Method: as §1, §2
Series [6] concerns primary breast cancers. The settings on record: cited from earlier work.
Series [7] has as its system internal anal sphincter (IAS) smooth muscle. The experiment in a line: basal tension of opossum internal anal sphincter (IAS) smooth muscle. As to conditions: 10^−5 M concentration. The arrangement: species or system opossum (Didelphis virginiana). How it is done: PACAP27 is known to cause a concentration-dependent fall in the basal tension of IAS, by the assay described in Rattan S et al., J. Pharmcol. Exper. Thera. 263: 722-728, 1997, the entire disclosure of which is herein incorporated by reference. This IAS assay was performed with increasing concentrations of TP 3475 until a maximum fall is reached, essentially as described below. PACAP27 was used as a control.
[…]. The large blood vessels and extraneous tissues including the external […] were removed, and the anal canal was opened and pinned flat with the mucosal side up on a dissecting tray containing oxygenated Krebs' solution (NaCl, 118.07; KCl, 4.69; CaCl2, 2.52; MgS04, 1.16; NaH2PO4, 1.01; NaHC03, 25; and glucose, 11.10). The mucosa was removed, and internal anal sphincter circular smooth muscle strips (approximately 2 mm×1 cm) were prepared from the lowermost part of the anal canal.
Measurement of isometric tension—The IAS smooth muscle strips were transferred to temperature-controlled 2 ml “muscle baths” containing Krebs' solution, bubbled continuously with a mixture of 95% O2-5% CO2. […] Isometric tensions were recorded on a Beckman Dynograph recorder (Beckman Instruments, Schiller Park, Ill.). […] Both optimal length and base-line were determined as described in Rattan S et al., 1997, supra.

For series [8], the system named is adenylate cyclase. The settings on record: pituitary cells; cited from earlier work.
For series [9], the system named is normal lung membrane. As to conditions: cited from earlier work.
The subject of series [10] is PACAP, VIP-R1 and VIP-R2 receptors. As to conditions: cited from earlier work.
For series [11] the following is noted: reduced from 100 for PACAP27; cited from earlier work.

Regarding `[C-]#[N+]CC(C)(C)OC.[C-]#[N+]CC(C)(C)OC.[C-]#[N+]CC(C)(C)OC.[C-]#[N+]CC(C)(C)OC.[C-]#[N+]CC(C)(C)OC.[C-]#[N+]CC(C)(C)OC.[Tc]` [^99mTc-Sesta-MIBI], the tumor uptake in [1] is 0.18±0.0 % ID/g.
As for `CC[C@H](C)[C@H](NC(=O)CNC(=O)[C@H](CC(=O)O)NC(=O)[C@H](CO)NC(=O)[C@@H](N)Cc1c[nH]cn1)C(=O)N[C@@H](Cc1ccccc1)C(=O)N[C@H](C(=O)N[C@@H](CC(=O)O)C(=O)N[C@@H](CO)C(=O)N[C@@H](Cc1ccc(O)cc1)C(=O)N[C@@H](CO)C(=O)N[C@@H](CCCNC(=N)N)C(=O)N[C@@H](Cc1ccc(O)cc1)C(=O)N[C@@H](CCCNC(=N)N)C(=O)N[C@@H](CCCCN)C(=O)N[C@@H](CCC(N)=O)C(=O)N[C@@H](CCSC)C(=O)N[C@@H](C)C(=O)N[C@H](C(=O)N[C@@H](CCCCN)C(=O)N[C@@H](CCCCN)C(=O)N[C@@H](Cc1ccc(O)cc1)C(=O)N[C@@H](CC(C)C)C(=O)N[C@@H](C)C(=O)N[C@@H](C)C(=O)N[C@H](C(=O)N[C@@H](CC(C)C)C(=O)NCCCC(=O)NCC(=O)N[C@H](C)C(=O)NCC(=O)NCC(=O)O)C(C)C)C(C)C)[C@@H](C)O` [^99mTc-TP 3475, metal not drawn], in [2] (Sprague-Dawley), the “blood clearance α-t½” value is “approximately 6 min” and the “blood clearance β-t½” value is recorded as “approximately 90 min”. In [2], the “time in which 75% of the radioactivity is cleared from the circulation” value was “about 12 minutes”. For the same molecule, in series [3], the stability entry is given as “stable for 24 hr”. In series [4], the “reduction of tumor uptake” value is listed as “approximately 50%”. Further, in series [5], the tissue uptake at 24 h was approximately 0.2 %ID/g.
Regarding `C[C@@H](O)[C@@H]1NC(=O)[C@H](CCCCN)NC(=O)[C@@H](Cc2c[nH]c3ccccc23)NC(=O)[C@H](Cc2ccccc2)NC(=O)[C@@H](NC(=O)[C@@H](Cc2ccccc2)NC(=O)CN(CCN(CCN(CC(=O)O)CC(=O)O)CC(=O)O)CC(=O)O)CSSC[C@@H](C(=O)N[C@H](CO)[C@@H](C)O)NC1=O` [^111In-DTPA-D-Phe^1-Octreotide, metal not drawn], the positive scintigraphy in series [6] (52 primary breast cancers) is reported as 75%. Further, the “patients in whom imaging of axillae detected non-palpable, cancer-containing lymph nodes” value in [6] (patients with histologically-proven metastases) was 4 of 13. The tissue uptake at 24 h in [5] came to 0.09 ± 0.01 %ID/g.
For the molecule HSDGIFTDSYSRYRKQMAVKKYLAAVL [PACAP27], in [7], the “% fall in IAS tension” value is “equivalent fall in IAS tension; also recorded: equal”. In series [8], the “potency in stimulating adenylate cyclase relative to VIP28” value is recorded as “ten times more potent”. Also, the IC50 in series [9] is approximately 1.5 nM. For the same molecule, in series [10], the receptor binding affinity entry is “binds with high affinity to PACAP, VIP-R1 and VIP-R2 receptors”.
Consider “PACAP27 linked to DTPA at its N-terminus: PACAP27 linked to DTPA at its N-terminus (Reubi et al. 1997) ({DTPA}-HSDGIFTDSYSRYRKQMAVKKYLAAVL; ends and bridges not checked; UniProt P18509 132-158, looked up)”, for which the biological activity in series [11] was less than 0.01.
In the case of “TP 3475: PACAP27 linked via a C-terminal Aba spacer to a Gly-(D)Ala-Gly-Gly chelating agent; SEQ ID NO: 5 (HSDGIFTDSYSRYRKQMAVKKYLAAVLXGAGG; C-terminal Aba spacer, Gly-(D)Ala-Gly-Gly chelator; PACAP analog TP 3475)”, in series [7], the “% fall in IAS tension” value is “equivalent fall in IAS tension; also recorded: equal”.
For the molecule “VIP28: 28-amino acid vasoactive intestinal peptide”, the 50% inhibitory concentration (IC50) in [9] is approximately 15 nM. The receptor binding affinity entry in series [10] is “binds with high affinity only to VIP-R1 and VIP-R2 receptors”.

Values taken from patent US6855308B2, “PACAP compositions and methods for tumor imaging and therapy” (Thomas Jefferson University, priority 2001, dated 2005).
